Measurements published in patent publication EP0120613A1, “Penem derivatives and precursors” (BEECHAM GROUP PLC, priority 1983, dated 1984).

Assays:
E.cloacae V692/80 = test: MIC of broad spectrum cephalosporins with Example 1b, microtitre technique; assay type: cell-based
C.freundii 423 = test: as above; assay type: cell-based
E.cloacae P383 = test: as above; assay type: cell-based
E.aerogenes 53 = test: as above; assay type: cell-based
E.cloacae 4508 = test: as above; assay type: cell-based
S.marcescens HCN 3956 = test: as above; assay type: cell-based
E.aerogenes 55 = test: as above; assay type: cell-based
E.cloacae 159/167 = test: as above; assay type: cell-based
E.cloacae Dokt 5 = test: as above; assay type: cell-based
C.freundii T1739 = test: as above; assay type: cell-based
E.aerogenes P99 = test: as above; assay type: cell-based
C.freundii T562 = test: as above; assay type: cell-based
Ps.aeruginosa Charlier = test: as above; assay type: cell-based
M.morganii 978 = test: as above; assay type: cell-based
S.marcescens V697 = test: as above; assay type: cell-based
Ps.aeruginosa Badia IR = test: as above; assay type: cell-based
Staphylococci Russell = test: Antibacterial activity of alkylidene-penems (MIC); assay type: cell-based; settings: compound alone
Staphylococci Oxford = test: Antibacterial activity of alkylidene-penems (MIC); assay type: cell-based; settings: compound alone
E. coli JT39 (RTEM) = test: Effect of alkylidene-penems on the MIC of amoxycillin; assay type: cell-based; settings: Amoxycillin alone
Kleb aerogenes = test: as above; assay type: cell-based, Klebsiella aerogenes; settings: Amoxycillin alone
S Aureus Russell = test: as above; assay type: cell-based; settings: Amoxycillin alone
[1] = tested on: range of resistant strains; test: MIC of Example 1b alone, microtitre technique (Table 3); assay type: cell-based; settings: Ex 1b alone; strains of Table 3
E.coli JT410 = test: Effect of alkylidene-penems on the MIC of cephaloridine; assay type: cell-based; settings: Cephaloridine alone

SMILES: CO/N=C(\C(=O)N[C@@H]1C(=O)N2C(C(=O)O)=C(COC(C)=O)CS[C@H]12)c1csc(N)n1 [Cefotaxime]
- MIC Cephalosporin (E.cloacae V692/80; Cefotaxime alone): >80 µg/mL
- MIC Cephalosporin (C.freundii 423; Cefotaxime alone): 40 µg/mL
- MIC Cephalosporin (E.cloacae P383; Cefotaxime alone): >80 µg/mL
- MIC Cephalosporin (E.aerogenes 53; Cefotaxime alone): >80 µg/mL
- MIC Cephalosporin (E.cloacae 4508; Cefotaxime alone): >80 µg/mL
- MIC Cephalosporin (S.marcescens HCN 3956; Cefotaxime alone): 80 µg/mL
- MIC Cephalosporin (E.aerogenes 55; Cefotaxime alone): 80 µg/mL
- MIC Cephalosporin (E.cloacae 159/167; Cefotaxime alone): >80 µg/mL
- MIC Cephalosporin (E.cloacae Dokt 5; Cefotaxime alone): >80 µg/mL
- MIC Cephalosporin (C.freundii T1739; Cefotaxime alone): 40 µg/mL
- MIC Cephalosporin (E.aerogenes P99; Cefotaxime alone): >80 µg/mL
- MIC Cephalosporin (C.freundii T562; Cefotaxime alone): 40 µg/mL
- MIC Cephalosporin (Ps.aeruginosa Charlier; Cefotaxime alone): >80 µg/mL
- MIC Cephalosporin (M.morganii 978; Cefotaxime alone): >80 µg/mL
- MIC Cephalosporin (S.marcescens V697; Cefotaxime alone): >80 µg/mL
- MIC Cephalosporin (Ps.aeruginosa Badia IR; Cefotaxime alone): >80 µg/mL

SMILES: O=C(O)C1=CSC2/C(=C\c3cccs3)C(=O)N12 (racemic) [Example 7b, (5RS) Sodium (Z)-6-(2-thienyl)methylenepenem-3-carboxylate]
- MIC (Staphylococci Russell): 50 µg/mL
- MIC (Staphylococci Oxford): 100 µg/mL

SMILES: CC(C)(O/N=C(\C(=O)N[C@@H]1C(=O)N2C(C(=O)[O-])=C(C[n+]3ccccc3)CS[C@H]12)c1csc(N)n1)C(=O)O [Ceftazidine]
- MIC Cephalosporin (E.cloacae V692/80; Ceftazidine alone): >80 µg/mL
- MIC Cephalosporin (C.freundii 423; Ceftazidine alone): 80 µg/mL
- MIC Cephalosporin (E.cloacae P383; Ceftazidine alone): >80 µg/mL
- MIC Cephalosporin (E.aerogenes 53; Ceftazidine alone): >80 µg/mL
- MIC Cephalosporin (E.cloacae 4508; Ceftazidine alone): >80 µg/mL
- MIC Cephalosporin (S.marcescens HCN 3956; Ceftazidine alone): 5 µg/mL
- MIC Cephalosporin (E.aerogenes 55; Ceftazidine alone): 80 µg/mL
- MIC Cephalosporin (E.cloacae 159/167; Ceftazidine alone): >80 µg/mL
- MIC Cephalosporin (E.cloacae Dokt 5; Ceftazidine alone): >80 µg/mL
- MIC Cephalosporin (C.freundii T1739; Ceftazidine alone): 80 µg/mL
- MIC Cephalosporin (E.aerogenes P99; Ceftazidine alone): 80 µg/mL
- MIC Cephalosporin (C.freundii T562; Ceftazidine alone): 80 µg/mL
- MIC Cephalosporin (Ps.aeruginosa Charlier; Ceftazidine alone): 80 µg/mL
- MIC Cephalosporin (M.morganii 978; Ceftazidine alone): 2.5 µg/mL
- MIC Cephalosporin (S.marcescens V697; Ceftazidine alone): 80 µg/mL
- MIC Cephalosporin (Ps.aeruginosa Badia IR; Ceftazidine alone): >80 µg/mL

SMILES: O=C(O)C1=CSC2/C(=C\c3ccc(Br)o3)C(=O)N12 (racemic) [Example 11b, (5RS) Sodium (Z)-6-(5-Bromofurfurylidene)penem-3-carboxylate]
- MIC (Staphylococci Russell): 50 µg/mL
- MIC (Staphylococci Oxford): 50 µg/mL

SMILES: CC1(C)S[C@@H]2[C@H](NC(=O)[C@H](N)c3ccc(O)cc3)C(=O)N2[C@H]1C(=O)O [Amoxycillin]
- MIC (µg/ml) of antibiotic (E. coli JT39 (RTEM)): 2000 µg/mL
- MIC (µg/ml) of antibiotic (Kleb aerogenes): 500 µg/mL
- MIC (µg/ml) of antibiotic (S Aureus Russell): 500 µg/mL

SMILES: O=C(O)C1=CSC2/C(=C\c3ccsc3)C(=O)N12 (racemic) [Example 8b, (5RS) Sodium (Z)-6-(3-thienyl)methylenepenem-3-carboxylate]
- MIC (Staphylococci Russell): 12.5 µg/mL
- MIC (Staphylococci Oxford): 50 µg/mL

SMILES: O=C(O)C1=CSC2/C(=C/c3ccoc3)C(=O)N12 (racemic) [Example 12b, (5RS) Sodium (E)-6-(3-Furylmethylene)penem-3-carboxylate]
- MIC (Staphylococci Russell): 50 µg/mL
- MIC (Staphylococci Oxford): 100 µg/mL

SMILES: O=C(O)C1=C(SCCO)SC2/C(=C\c3ccco3)C(=O)N12 (racemic) [Example 3b, (5RS) Sodium (Z)-6-Furfurylidene-2-(2-hydroxyethylthio) penem-3-carboxylate]
- MIC (Staphylococci Russell): 12.5 µg/mL
- MIC (Staphylococci Oxford): 12.5 µg/mL

SMILES: O=C(O)C1=CSC2/C(=C/c3ccco3)C(=O)N12 (racemic) [Example 9b, (5RS) Sodium (E)-6-Furfurylidenepenem-3-carboxylate]
- MIC (Staphylococci Russell): 125 µg/mL
- MIC (Staphylococci Oxford): 62 µg/mL

SMILES: CCSC1=C(C(=O)O)N2C(=O)/C(=C/c3ccc(COC(C)=O)o3)C2S1 (racemic) [Example 5b, (SRS) Sodium (z)-6-(5-Acetoxymethylfurfurylidene)-2-ethylthiopenem-3-carboxylate]
- MIC (Staphylococci Russell): 12.5 µg/mL
- MIC (Staphylococci Oxford): 3.1 µg/mL

SMILES: CCSC1=C(C(=O)O)N2C(=O)/C(=C/c3ccco3)C2S1 (racemic) [Example 2b, (5RS) Sodium 2-Eth^ylthio - (Z)-6-furfurylidenepenem-3-carboxylate]
- MIC (Staphylococci Russell): 10.0 µg/mL
- MIC (Staphylococci Oxford): 5.0 µg/mL

SMILES: O=C(O)C1=CSC2/C(=C\c3ccco3)C(=O)N12 (racemic) [Example 1b, (5 RS) Sodium (Z) -6- Furfurylidenepenem - 3 - carboxylate]
- MIC (Staphylococci Russell): 16.0 µg/mL
- MIC (Staphylococci Oxford): 16.0 µg/mL
- MIC [1]: > 80 µg/mL

SMILES: O=C(Cc1cccs1)N[C@@H]1C(=O)N2C(C(=O)[O-])=C(C[n+]3ccccc3)CS[C@H]12 [Cephaloridine]
- MIC (µg/ml) of antibiotic (E.coli JT410): 62 to 125 µg/mL
